According to patent US9090576B2, “2-substituted-p-quinone derivatives for treatment of oxidative stress diseases” (Edison Pharmaceuticals, Inc., priority 2008, dated 2015):
pEC50: −log10 of the molar value.

Tests used:
Type in all cases: cell-based
[1] = test system: Human dermal fibroblasts from Friedreich's Ataxia patients; assay: Rescue of BSO-stressed FRDA fibroblasts (Calcein AM viability); conditions: BSO-stressed FRDA fibroblasts (GM04078), less than about 150 nM, read-out: EC50, protection against FRDA
In short: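 Patient FRDA fibroblasts (GM04078) seeded at 3,000 cells/well, given serially diluted compound from a 150 μM master solution, then stressed next day with 1 mM BSO.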

[2] = test system: human dermal fibroblasts from Huntington's patients; assay: Rescue of BSO-stressed fibroblasts from Huntington's patients (screen as Example A); conditions: Fibroblast, BSO-stressed Huntington's fibroblasts (GM 04281), less than about 150 nM, read-out: EC50, protection against Huntington's
In short: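 Coriell Huntington's line GM 04281 plated at 3,000 cells/well and attached overnight at 37 °C. Survival was read by Calcein AM (1.2 μM, 50-70 min, RT) fluorescence at 485/525 nm, giving EC50.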

[3] = test system: human dermal fibroblasts from Parkinson's Disease patients; assay: Rescue of BSO-stressed fibroblasts from Parkinson's Disease patients (screen as Example A); conditions: Fibroblast, BSO-stressed Parkinson's Disease fibroblasts (AG20439), less than about 150 nM, read-out: EC50, protection against PD
In short: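 Dermal fibroblasts from a Parkinson's Disease patient (Coriell AG20439) were plated at 3,000 cells/well, attached overnight and pre-incubated overnight with serially diluted compounds (150 μM master solution). Survival was read by 1.2 μM calcein AM (50–70 min, RT, 485/525 nm fluorescence) and converted to EC50.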

[4] = test system: human dermal fibroblasts from LHON patients; assay: Rescue of BSO-stressed fibroblasts from LHON patients (screen as Example A); conditions: Fibroblast, BSO-stressed LHON fibroblasts (GM03858), less than about 150 nM, read-out: EC50, protection against LHON
In short: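 LHON patient fibroblasts (Coriell GM03858) at 3,000 cells/well were pre-treated overnight with compounds serially diluted from a 150 μM master solution. Surviving cells were stained with 1.2 μM Calcein AM for 50-70 min at RT and read by fluorescence (485/525 nm), giving EC50.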

[5] = test system: human dermal fibroblasts from CoQ10 deficient patients; assay: Rescue of BSO-stressed fibroblasts from CoQ10 deficient patients (screen similar to Example A); conditions: Fibroblast, BSO-stressed fibroblasts from CoQ10 deficient patients harboring a CoQ2 mutation, less than about 150 nM, read-out: EC50, protection against CoQ10 deficiency
Description: A culture with FRDA fibroblasts was started from a 1 ml vial with approximately 500,000 cells stored in liquid nitrogen. Cells were propagated in 10 cm cell culture dishes by splitting every third day in a ratio of 1:3 until nine plates were available. Once confluent, fibroblasts were harvested. For 54 micro titer plates (96 well-MTP) a total of 14.3 million cells (passage eight) were re-suspended in 480 ml medium, corresponding to 100 μl medium with 3,000 cells/well. The remaining cells were distributed in 10 cm cell culture plates (500,000 cells/plate) for propagation. The plates were incubated overnight at 37° C. in an atmosphere with 95% humidity and 5% CO2 to allow attachment of the cells to the culture plate.
MTP medium (243 μl) was added to a well of the microtiter plate. The test compounds were unfrozen, and 7.5 μl of a 5 mM stock solution was dissolved in the well containing 243 μl medium, resulting in a 150 μM master solution. Serial dilutions from the master solution were made. The period between the single dilution steps was kept as short as possible (generally less than 1 second).
Plates were kept overnight in the cell culture incubator. The next day, 10 μl of a 10 mM BSO solution were added to the wells, resulting in a 1 mM final BSO concentration. Forty-eight hours later, three plates were examined under a phase-contrast microscope to verify that the cells in the 0% control (wells E1-H1) were clearly dead. The medium from all plates was discarded, and the remaining liquid was removed by gently tapping the plate inversed onto a paper towel.
100 μl of PBS containing 1.2 μM Calcein AM were then added to each well. The plates were incubated for 50-70 minutes at room temperature. After that time the PBS was discarded, the plate gently tapped on a paper towel and fluorescence (excitation/emission wavelengths of 485 nm and 525 nm, respectively) was read on a Gemini fluorescence reader. Data was imported into Microsoft Excel (EXCEL is a registered trademark of Microsoft Corporation for a spreadsheet program) and used to calculate the EC50 concentration for each compound.
Compounds of the invention were tested using a screen similar to the one described in Example A, but substituting FRDA cells with cells obtained from CoQ10 deficient patients harboring a CoQ2 mutation. The compounds were tested for their ability to rescue human dermal fibroblasts from CoQ10 deficient patients from oxidative stress.

Measured: pEC50

CC1=C(C)C(=O)C(CCCC(=O)N2Cc3ccccc3C2)=C(C)C1=O [2-(4-(isoindolin-2-yl)-4-oxobutyl)-3,5,6-trimethylcyclohexa-2,5-diene-1,4-dione]
> 6.82: all assays above

CC1=C(C)C(=O)C(CCCC(=O)NCc2ccccc2Cl)=C(C)C1=O [N-(2-chlorobenzyl)-4-(2,4,5-trimethyl-3,6-dioxocyclohexa-1,4-dienyl)butanamide]
> 6.82: all assays above

CC1=C(C)C(=O)C(CCCC(=O)N(C)c2ccc(Cl)cc2)=C(C)C1=O [N-(4-chlorophenyl)-N-methyl-4-(2,4,5-trimethyl-3,6-dioxocyclohexa-1,4-dienyl)butanamide]
> 6.82: all assays above

CC1=C(C)C(=O)C(CCCC(=O)N(C)c2ccccc2)=C(C)C1=O [N-methyl-N-phenyl-4-(2,4,5-trimethyl-3,6-dioxocyclohexa-1,4-dienyl)butanamide]
> 6.82: all assays above

COc1ccc(NC(=O)CCCC2=C(C)C(=O)C(C)=C(C)C2=O)cc1OC [N-(3,4-dimethoxyphenyl)-4-(2,4,5-trimethyl-3,6-dioxocyclohexa-1,4-dienyl)butanamide]
> 6.82: all assays above

CC1=C(C)C(=O)C(CCCC(N)=O)=C(C)C1=O [4-(2,4,5-trimethyl-3,6-dioxocyclohexa-1,4-dienyl)butanamide]
> 6.82: all assays above

CC1=C(C)C(=O)C(CCCC(=O)NCCc2ccccc2F)=C(C)C1=O [N-(2-fluorophenethyl)-4-(2,4,5-trimethyl-3,6-dioxocyclohexa-1,4-dienyl)butanamide]
> 6.82: all assays above

CC1=C(C)C(=O)C(CCCC(=O)N(C)Cc2ccccc2)=C(C)C1=O [N-benzyl-N-methyl-4-(2,4,5-trimethyl-3,6-dioxocyclohexa-1,4-dienyl)butanamide]
> 6.82: all assays above

CC1=C(C)C(=O)C(CCCC(=O)Nc2ccc(F)cc2)=C(C)C1=O [N-(4-fluorophenyl)-4-(2,4,5-trimethyl-3,6-dioxocyclohexa-1,4-dienyl)butanamide]
> 6.82: all assays above

CC1=C(C)C(=O)C(CCCC(=O)Nc2cccc(Cl)c2)=C(C)C1=O [N-(3-chlorophenyl)-4-(2,4,5-trimethyl-3,6-dioxocyclohexa-1,4-dienyl)butanamide]
> 6.82: all assays above

CC1=C(C)C(=O)C(CCCC(=O)Nc2ccc3c(c2)OCO3)=C(C)C1=O [N-(benzo[d][1,3]dioxol-5-yl)-4-(2,4,5-trimethyl-3,6-dioxocyclohexa-1,4-dienyl)butanamide]
> 6.82: all assays above

CCN(Cc1ccccc1)C(=O)CCCC1=C(C)C(=O)C(C)=C(C)C1=O [N-benzyl-N-ethyl-4-(2,4,5-trimethyl-3,6-dioxocyclohexa-1,4-dienyl)butanamide]
> 6.82: all assays above

CC1=C(C)C(=O)C(CCCC(=O)NCCc2cccc(F)c2)=C(C)C1=O [N-(3-fluorophenethyl)-4-(2,4,5-trimethyl-3,6-dioxocyclohexa-1,4-dienyl)butanamide]
> 6.82: all assays above

CC1=C(C)C(=O)C(CCCC(=O)Nc2ccccc2)=C(C)C1=O [N-phenyl-4-(2,4,5-trimethyl-3,6-dioxocyclohexa-1,4-dienyl)butanamide]
> 6.82: all assays above

CC1=C(C)C(=O)C(CCCC(=O)NCCc2ccc(Cl)cc2)=C(C)C1=O [N-(4-chlorophenethyl)-4-(2,4,5-trimethyl-3,6-dioxocyclohexa-1,4-dienyl)butanamide]
> 6.82: all assays above

CC1=C(C)C(=O)C(CCCC(=O)NCCc2ccccc2Cl)=C(C)C1=O [N-(2-chlorophenethyl)-4-(2,4,5-trimethyl-3,6-dioxocyclohexa-1,4-dienyl)butanamide]
> 6.82: all assays above

CC1=C(C)C(=O)C(CCC(C)(C)C(N)=O)=C(C)C1=O [2,2-dimethyl-4-(2,4,5-trimethyl-3,6-dioxocyclohexa-1,4-dienyl)butanamide]
> 6.82: all assays above

CC1=C(C)C(=O)C(CCCC(=O)N(C)c2ccc(F)cc2)=C(C)C1=O [N-(4-fluorophenyl)-N-methyl-4-(2,4,5-trimethyl-3,6-dioxocyclohexa-1,4-dienyl)butanamide]
> 6.82: all assays above
